Measured values from US20150105252A1, “SUBSTITUTED PYRAZOLES AS HERBICIDES” (E I DU PONT DE NEMOURS AND COMPANY, priority 2013, published 2015).

What was measured:
crabgrass, large [1] = assay: Test C postemergence; format: in vivo, Digitaria sanguinalis; conditions: for Plant response rating (scale of 0 to 100 where 0 is no effect and 100 is complete control), Crabgrass, Large: Postemergence, 31 g ai/ha, visually evaluated after 13 to 15 days; for Crabgrass, Large plant response rating / Plant response rating, Crabgrass, Large: postemergence; for Crabgrass, Large plant response rating: 62 g ai/ha, scale 0 to 100
In short: (§1)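 In this greenhouse assay, seeded soil (loam plus sand) or emerged seedlings in peat-vermiculite medium were treated with formulated compound. Roughly two weeks later (13–15 days), each species was scored visually relative to controls, from 0 for no effect to 100 for complete control.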

foxtail, giant [2] = assay: Test C postemergence; format: in vivo, Setaria faberii; conditions: for Plant response rating (scale of 0 to 100 where 0 is no effect and 100 is complete control), Foxtail, Giant: Postemergence, 31 g ai/ha, visually evaluated after 13 to 15 days; for Foxtail, Giant plant response rating / Plant response rating, Foxtail, Giant: postemergence; for Foxtail, Giant plant response rating: 62 g ai/ha, scale 0 to 100
In short: as §1

velvetleaf = assay: Test A preemergence; format: in vivo, Abutilon theophrasti; conditions: preemergence
In short: (§2)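 After sowing in a sand–loam mix, pots received compound preemergence by directed soil spray, or postemergence once plants reached the one- to two-leaf stage (2–10 cm). Formulation contained surfactant in a non-phytotoxic solvent. Injury was scored visually after ~10 greenhouse days, 0–100 scale.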

johnsongrass = assay: Test C preemergence; format: in vivo, Sorghum halepense
In short: as §1

corn = assay: Test C preemergence; format: in vivo, Zea mays
In short: as §1

sedge, umbrella = assay: Test B flood; format: in vivo, Cyperus difformis; conditions: 250 g ai/ha, visual rating on 0 to 100 scale (0 no effect, 100 complete control), 13 to 15 days
In short: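 Each compound is applied to the floodwater of pots holding 2-leaf seedlings, water standing 3 cm over the soil throughout. Plants stay in a greenhouse 13 to 15 days before visual scoring against controls from 0 (no effect) to 100 (complete control).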

wheat [3] = assay: Test A preemergence; format: in vivo, Triticum aestivum; conditions: preemergence
In short: as §2

foxtail, giant [4] = assay: Test A postemergence; format: in vivo, Setaria faberii
In short: as §2

waterhemp = assay: Test C postemergence; format: in vivo, Amaranthus rudis; conditions: for Plant response rating (scale of 0 to 100 where 0 is no effect and 100 is complete control), Waterhemp: Postemergence, 31 g ai/ha, visually evaluated after 13 to 15 days; for Waterhemp plant response rating / Plant response rating, Waterhemp: postemergence; for Waterhemp plant response rating: scale 0 to 100
In short: as §1

blackgrass = assay: Test C postemergence; format: in vivo, Alopecurus myosuroides; conditions: for Plant response rating (scale of 0 to 100 where 0 is no effect and 100 is complete control), Blackgrass: Postemergence, 31 g ai/ha, visually evaluated after 13 to 15 days; for Blackgrass plant response rating / Plant response rating, Blackgrass: postemergence; for Blackgrass plant response rating: 62 g ai/ha, scale 0 to 100
In short: as §1

wheat [5] = assay: Test C preemergence; format: in vivo, Triticum aestivum
In short: as §1

ragweed = assay: Test C preemergence; format: in vivo, Ambrosia elation
In short: as §1

crabgrass, large [6] = assay: Test A preemergence; format: in vivo, Digitaria sanguinalis; conditions: preemergence
In short: as §2

[7] = 250 g ai/ha, scale 0 to 100 (0 no effect, 100 complete control)
[8] = 125 g ai/ha, scale 0 to 100, 0 no effect, 100 complete control
[9] = 125 g ai/ha, visual injury, 0 to 100 scale, approx. 10 days
[10] = 500 g ai/ha, visual injury after approx. 10 days, 0 to 100 scale (0 no effect, 100 complete control)
[11] = preemergence, 31 g ai/ha, visual rating, scale 0 to 100 (0 no effect, 100 complete control), 13 to 15 days
[12] = preemergence, 62 g ai/ha, scale 0 to 100 (0 no effect, 100 complete control), 13 to 15 days
[13] = preemergence, 125 g ai/ha, scale 0 to 100, 0 is no effect, 100 is complete control
[14] = postemergence, 125 g ai/ha, about 10 days, visual rating on 0 to 100 scale (0 no effect, 100 complete control)
[15] = preemergence, 125 g ai/ha, 13 to 15 days, scale 0 to 100, 0 = no effect, 100 = complete control
[16] = preemergence, 250 g ai/ha, scale 0 to 100, 0 is no effect, 100 is complete control
[17] = Postemergence, 500 g ai/ha, 0 to 100 scale (0 no effect, 100 complete control)
[18] = Preemergence, rate head not shown (block before 16 g ai/ha), scale 0 to 100
[19] = 125 g ai/ha, visual injury approx. 10 days after treatment

CCc1cc(C(=O)NCC(F)(F)F)nn1Cc1nc(C(F)(F)F)nn1C [Compound 107]
Plant response rating (scale of 0 to 100 where 0 is no effect and 100 is complete control), Crabgrass, Large (crabgrass, large [1]): 5
Crabgrass, Large plant response rating (crabgrass, large [1]): 30
Plant response rating, Crabgrass, Large (crabgrass, large [1]; [7]): 85
Plant response rating, Crabgrass, Large (crabgrass, large [1]; [8]): 45
Plant response rating (scale of 0 to 100 where 0 is no effect and 100 is complete control), Foxtail, Giant (foxtail, giant [2]): 10
Foxtail, Giant plant response rating (foxtail, giant [2]): 15
Plant response rating, Foxtail, Giant (foxtail, giant [2]; [7]): 60
Plant response rating, Foxtail, Giant (foxtail, giant [2]; [8]): 55
Velvetleaf plant response rating (velvetleaf; [9]): 90
Velvetleaf plant response rating (velvetleaf; [10]): 100
Plant response rating (scale of 0 to 100), Johnsongrass (johnsongrass; Preemergence, 250 g ai/ha): 100
Johnsongrass plant response rating (johnsongrass; [11]): 30
Johnsongrass plant response rating (johnsongrass; [12]): 65
Johnsongrass plant response rating (johnsongrass; [13]): 90
Plant response rating (scale of 0 to 100), Corn (corn; Preemergence, 250 g ai/ha): 95
Corn plant response rating (corn; [11]): 30
Corn plant response rating (corn; [12]): 45
Corn plant response rating (corn; [13]): 90
Plant response rating, Sedge, Umbrella (sedge, umbrella): 80
Wheat plant response rating (wheat [3]; [9]): 10
Wheat plant response rating (wheat [3]; [10]): 90
Foxtail, Giant plant response rating (foxtail, giant [4]; Postemergence, 500 g ai/ha, visual rating after approx. 10 days, 0 to 100 scale (0 no effect, 100 complete control)): 90
Foxtail, Giant plant response rating (foxtail, giant [4]; [14]): 70
Plant response rating (scale of 0 to 100 where 0 is no effect and 100 is complete control), Waterhemp (waterhemp): 5
Waterhemp plant response rating (waterhemp; 62 g ai/ha): 40
Plant response rating, Waterhemp (waterhemp; [7]): 80
Plant response rating, Waterhemp (waterhemp; [8]): 40
Plant response rating (scale of 0 to 100 where 0 is no effect and 100 is complete control), Blackgrass (blackgrass): 10
Blackgrass plant response rating (blackgrass): 10
Plant response rating, Blackgrass (blackgrass; [7]): 35
Plant response rating, Blackgrass (blackgrass; [8]): 15
Plant response rating (scale of 0 to 100), Wheat (wheat [5]; Preemergence, 250 g ai/ha): 50
Wheat plant response rating (wheat [5]; [11]): 5
Wheat plant response rating (wheat [5]; [12]): 15
Wheat plant response rating (wheat [5]; [13]): 50
Plant response rating (scale of 0 to 100), Ragweed (ragweed; Preemergence, 250 g ai/ha): 100
Ragweed plant response rating (ragweed; [11]): 50
Ragweed plant response rating (ragweed; [12]): 98
Ragweed plant response rating (ragweed; [13]): 100
Crabgrass, Large plant response rating (crabgrass, large [6]; [9]): 100
Crabgrass, Large plant response rating (crabgrass, large [6]; [10]): 100

CCCNC(=O)c1cc(OCC)n(Cc2ccnc(OC(F)F)c2)n1 [Compound 136]
Plant response rating (scale of 0 to 100 where 0 is no effect and 100 is complete control), Crabgrass, Large (crabgrass, large [1]): 5
Crabgrass, Large plant response rating (crabgrass, large [1]): 5
Plant response rating, Crabgrass, Large (crabgrass, large [1]; [7]): 40
Plant response rating, Crabgrass, Large (crabgrass, large [1]; [8]): 40
Plant response rating (scale of 0 to 100 where 0 is no effect and 100 is complete control), Foxtail, Giant (foxtail, giant [2]): 30
Foxtail, Giant plant response rating (foxtail, giant [2]): 30
Plant response rating, Foxtail, Giant (foxtail, giant [2]; [7]): 70
Plant response rating, Foxtail, Giant (foxtail, giant [2]; [8]): 40
Johnsongrass plant response rating (johnsongrass; [11]): 60
Johnsongrass plant response rating (johnsongrass; [12]): 85
Plant response rating, Johnsongrass (johnsongrass; [15]): 98
Johnsongrass plant response rating (johnsongrass; [16]): 100
Corn plant response rating (corn; [11]): 35
Corn plant response rating (corn; [12]): 70
Plant response rating, Corn (corn; [15]): 60
Corn plant response rating (corn; [16]): 85
Plant response rating, Sedge, Umbrella (sedge, umbrella): 80
Foxtail, Giant plant response rating (foxtail, giant [4]; [17]): 100
Foxtail, Giant plant response rating (foxtail, giant [4]; [14]): 90
Plant response rating (scale of 0 to 100 where 0 is no effect and 100 is complete control), Waterhemp (waterhemp): 60
Waterhemp plant response rating (waterhemp; 62 g ai/ha): 70
Plant response rating, Waterhemp (waterhemp; [7]): 90
Plant response rating, Waterhemp (waterhemp; [8]): 75
Plant response rating (scale of 0 to 100 where 0 is no effect and 100 is complete control), Blackgrass (blackgrass): 5
Blackgrass plant response rating (blackgrass): 10
Plant response rating, Blackgrass (blackgrass; [7]): 40
Plant response rating, Blackgrass (blackgrass; [8]): 15
Wheat plant response rating (wheat [5]; [11]): 10
Wheat plant response rating (wheat [5]; [12]): 65
Plant response rating, Wheat (wheat [5]; [15]): 95
Wheat plant response rating (wheat [5]; [16]): 95
Ragweed plant response rating (ragweed; [11]): 45
Ragweed plant response rating (ragweed; [12]): 75
Plant response rating, Ragweed (ragweed; [15]): 75
Ragweed plant response rating (ragweed; [16]): 98

CCCc1cc(C(=O)NC2CC2)nn1Cc1ccnc(OC(F)F)c1 [Compound 205]
Plant response rating (scale of 0 to 100 where 0 is no effect and 100 is complete control), Crabgrass, Large (crabgrass, large [1]): 5
Crabgrass, Large plant response rating (crabgrass, large [1]): 10
Plant response rating, Crabgrass, Large (crabgrass, large [1]; [7]): 65
Plant response rating, Crabgrass, Large (crabgrass, large [1]; [8]): 45
Plant response rating (scale of 0 to 100 where 0 is no effect and 100 is complete control), Foxtail, Giant (foxtail, giant [2]): 20
Foxtail, Giant plant response rating (foxtail, giant [2]): 35
Plant response rating, Foxtail, Giant (foxtail, giant [2]; [7]): 65
Plant response rating, Foxtail, Giant (foxtail, giant [2]; [8]): 70
Johnsongrass plant response rating (johnsongrass; [11]): 70
Johnsongrass plant response rating (johnsongrass; [12]): 80
Plant response rating, Johnsongrass (johnsongrass; [15]): 90
Johnsongrass plant response rating (johnsongrass; [16]): 100
Corn plant response rating (corn; [11]): 70
Corn plant response rating (corn; [12]): 70
Plant response rating, Corn (corn; [15]): 80
Corn plant response rating (corn; [16]): 98
Plant response rating, Sedge, Umbrella (sedge, umbrella): 100
Foxtail, Giant plant response rating (foxtail, giant [4]; [17]): 90
Foxtail, Giant plant response rating (foxtail, giant [4]; [14]): 90
Plant response rating, Waterhemp (waterhemp; [7]): 85
Waterhemp plant response rating (waterhemp): 70
Plant response rating (scale of 0 to 100 where 0 is no effect and 100 is complete control), Blackgrass (blackgrass): 5
Blackgrass plant response rating (blackgrass): 5
Plant response rating, Blackgrass (blackgrass; [7]): 30
Plant response rating, Blackgrass (blackgrass; [8]): 5
Wheat plant response rating (wheat [5]; [11]): 5
Wheat plant response rating (wheat [5]; [12]): 15
Plant response rating, Wheat (wheat [5]; [15]): 85
Wheat plant response rating (wheat [5]; [16]): 95
Ragweed plant response rating (ragweed; [11]): 80
Ragweed plant response rating (ragweed; [12]): 100
Plant response rating, Ragweed (ragweed; [15]): 98
Ragweed plant response rating (ragweed; [16]): 100

CCc1cc(C(=O)NC2CC2)nn1Cc1ccnc(Br)c1 [Compound 220]
Plant response rating (scale of 0 to 100 where 0 is no effect and 100 is complete control), Crabgrass, Large (crabgrass, large [1]): 5
Crabgrass, Large plant response rating (crabgrass, large [1]): 5
Plant response rating, Crabgrass, Large (crabgrass, large [1]; [7]): 10
Plant response rating, Crabgrass, Large (crabgrass, large [1]; [8]): 5
Plant response rating (scale of 0 to 100 where 0 is no effect and 100 is complete control), Foxtail, Giant (foxtail, giant [2]): 0
Foxtail, Giant plant response rating (foxtail, giant [2]): 5
Plant response rating, Foxtail, Giant (foxtail, giant [2]; [7]): 5
Plant response rating, Foxtail, Giant (foxtail, giant [2]; [8]): 5
Plant response rating, Johnsongrass (johnsongrass; [18]): 10
Johnsongrass plant response rating (johnsongrass; [12]): 5
Plant response rating, Johnsongrass (johnsongrass; [15]): 5
Johnsongrass plant response rating (johnsongrass; [16]): 80
Plant response rating, Corn (corn; Preemergence, rate head not shown (block before 16 g ai/ha), scale 0 to 100, 100 is complete control): 0
Corn plant response rating (corn; [12]): 0
Plant response rating, Corn (corn; [15]): 5
Corn plant response rating (corn; [16]): 40
Plant response rating, Sedge, Umbrella (sedge, umbrella): 70
Wheat plant response rating (0 to 100 scale) (wheat [3]; [19]): 0
Foxtail, Giant plant response rating (foxtail, giant [4]; Postemergence, 125 g ai/ha, 0 to 100 scale, 0 no effect, 100 complete control): 90
Foxtail, Giant plant response rating (foxtail, giant [4]; [17]): 100
Plant response rating, Waterhemp (waterhemp; [7]): 45
Waterhemp plant response rating (waterhemp): 45
Plant response rating (scale of 0 to 100 where 0 is no effect and 100 is complete control), Blackgrass (blackgrass): 5
Blackgrass plant response rating (blackgrass): 5
Plant response rating, Blackgrass (blackgrass; [7]): 20
Plant response rating, Blackgrass (blackgrass; [8]): 5
Plant response rating, Wheat (wheat [5]; [18]): 10
Wheat plant response rating (wheat [5]; [12]): 0
Plant response rating, Wheat (wheat [5]; [15]): 15
Wheat plant response rating (wheat [5]; [16]): 0
Plant response rating, Ragweed (ragweed; [18]): 80
Ragweed plant response rating (ragweed; [12]): 65
Plant response rating, Ragweed (ragweed; [15]): 75
Ragweed plant response rating (ragweed; [16]): 95
Crabgrass, Large plant response rating (0 to 100 scale) (crabgrass, large [6]; [19]): 100
Crabgrass, Large plant response rating (crabgrass, large [6]; [10]): 100
